# Tests used:
# rice (Oryza sativa) = test: Test B1 flooded paddy test, rice; assay type: in vivo; conditions: 250 g ai/ha, Flood, applied to paddy water, 2-leaf stage, visually evaluated after 10 to 14 days
# Description: A dash (-) response means no test result.
# corn (Zea mays) = test: Test A1 postemergence, corn; assay type: in vivo; conditions: Postemergence
# Method in brief: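 Seeds were first planted into a blend of loam soil and sand and given a preemergence directed soil spray. In parallel, pots of the same soil were sown for postemergence application once plants reached 2 to 10 cm and the one- to two-leaf stage. Both used surfactant-containing non-phytotoxic solvent formulations.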
# [1] = 31 g ai/ha, 0 to 100 scale (0 no effect, 100 complete control), 10 days
smiles,measurement,setting,value
CCOC(=O)N(c1cc(C(=O)N2CCC(C)CC2)c(C)cc1C)S(=O)(=O)C(F)(F)F [Compound 354],"Plant response rating, Rice (0 to 100 scale, 0 is no effect, 100 is complete control)",rice (Oryza sativa),15
same,"Plant response rating, Corn",corn (Zea mays); [1],0
same,"Plant response rating, Corn","corn (Zea mays); 125 g ai/ha, 0 to 100 scale",0
CCC1ON=C(c2cc(N(C(=O)OCC(C)C)S(=O)(=O)C(F)(F)F)c(C)cc2C)C1CC (stereo not drawn) [Compound 348],"Plant response rating, Rice (0 to 100 scale, 0 is no effect, 100 is complete control)",rice (Oryza sativa),0
same,"Plant response rating, Corn",corn (Zea mays); [1],0
same,"Plant response rating, Corn","corn (Zea mays); 125 g ai/ha, 0 to 100 scale",20
Cc1c(NS(=O)(=O)C(F)(F)F)cc(C(=O)N2CC(C)OC(C)C2)c(C)c1C (stereo not drawn) [Compound 327],"Plant response rating, Rice (0 to 100 scale, 0 is no effect, 100 is complete control)",rice (Oryza sativa),0
same,"Plant response rating, Corn",corn (Zea mays); [1],10
same,"Plant response rating, Corn","corn (Zea mays); 125 g ai/ha, 0 to 100 scale",40
CCOC(=O)N(c1cc(C(=O)N2CCC(c3ccccc3)CC2)c(C)cc1C)S(=O)(=O)C(F)(F)F [Compound 365],"Plant response rating, Rice (0 to 100 scale, 0 is no effect, 100 is complete control)",rice (Oryza sativa),15
same,"Plant response rating, Corn",corn (Zea mays); [1],0
same,"Plant response rating, Corn","corn (Zea mays); 125 g ai/ha, 0 to 100 scale",0
Cc1cc(C)c(N(COC(=O)C(C)(C)C)S(=O)(=O)C(F)(F)F)cc1C1=NOC2(C)CCCC12 (stereo not drawn) [Compound 341],"Plant response rating, Rice (0 to 100 scale, 0 is no effect, 100 is complete control)",rice (Oryza sativa),55
same,"Plant response rating, Corn",corn (Zea mays); [1],0
same,"Plant response rating, Corn","corn (Zea mays); 125 g ai/ha, 0 to 100 scale",0
Cc1cc(C)c(C2=NOC3OCCC23)cc1NS(=O)(=O)C(F)(F)F (stereo not drawn) [Compound 349],"Plant response rating, Rice (0 to 100 scale, 0 is no effect, 100 is complete control)",rice (Oryza sativa),45
same,"Plant response rating, Corn",corn (Zea mays); [1],40
same,"Plant response rating, Corn","corn (Zea mays); 125 g ai/ha, 0 to 100 scale",90
COc1cnn(-c2cc(NS(=O)(=O)C(F)(F)F)c(C)cc2C)c(=O)c1OC [Compound 282],"Plant response rating, Rice (0 to 100 scale, 0 is no effect, 100 is complete control)",rice (Oryza sativa),0
same,"Plant response rating, Corn",corn (Zea mays); [1],0
same,"Plant response rating, Corn","corn (Zea mays); 125 g ai/ha, 0 to 100 scale",80
